How the values were obtained:
[1] = system: T-lymphocytes in whole blood; type: cell-based, human
[2] = system: T-Lymphocytes (CD4 subset) in whole blood; type: cell-based, human
[3] = system: T-Lymphocytes (CD4 subset) in whole blood; experiment: T-lymphocyte ATP response to PHA in normal and HIV infected donors (Example 4); settings: PHA 10 ug/mL, overnight incubation, anti-CD4 beads
[4] = system: T lymphocytes (CD4 subset) in whole blood; experiment: Whole blood ATP response after stimulation with PHA, 2-24 hr (Example 2); type: cell-based, human; settings: PHA 1%
Protocol: Aliquots of the blood were diluted 1:10 in RPMI 1640. Replicates received either no addition or the mitogen PHA at 1% final concentration. Samples were incubated at 37° C. […] The cells and beads were placed next to a permanent magnet positioned such that the magnetic field was in a direction perpendicular to gravity. […] Assay Reagent (luciferin/luciferase) was added to the samples ATP production was determined as described above. […] The response is clearly evident at 4 hours of incubation, peaks at 8 hours, and remains high at 24 hrs post stimulation.

Substance: Tetanus Toxoid
- increase in ATP over background [1]: increase in ATP over background
- increase in ATP over background [2]: significant
- time within which activation of the T lymphocyte subset is detected [2]: ≤ 5 h

Substance: Phytohemagglutinin [PHA]
- ATP response to PHA, HIV+ population versus normal donors [3]: lower than the normal donor population
- increase in ATP over background ([4]; all time points (2, 4, 6, 8, 24 hr)): increase in ATP over background
- time of peak ATP response ([4]; time course 2-24 hr): 8 h
- increase in ATP over background [2]: statistically significant increase
- time within which activation of the T lymphocyte subset is detected [2]: ≤ 0.5 h

Source: patent publication US20070243576A1, “Method to confirm immunosuppression in human patients by measuring lymphocyte activation” (priority 2001, published 2007)
